Results from ChEMBL document CHEMBL3885861, “Open TG-GATES”.

Organism: Rattus norvegicus
Assay: Open TG-GATES - Regimen: Daily Repeat
Type: toxicity, organism-based, Sprague-Dawley
Parameters: regimen Daily Repeat, gender Male, age 6 weeks
Conditions: in vivo, po, route gavage; for APTT / Bas / Eos / Fbg / Hb / Ht / Lym / MCH / MCHC / MCV / Mono / Neu / PT / Plat / RBC / Ret / WBC: tissue Blood; for A/G / ALP / ALT / AST / BUN / CRE / Ca / Cl / DBIL / GLC / IP / K / LDH / Na / PL / RALB / TBIL / TC / TG / TP / gamma-GTP: tissue Plasma
[1] = 0 mg/kg, 72 h, dose level Control, time 3 day
[2] = 0 mg/kg, […], dose level Control, time 7 day
[3] = 0 mg/kg, […], dose level Control, time 14 day
[4] = 0 mg/kg, […], dose level Control, time 28 day
[5] = 10 mg/kg, 72 h, dose level Low, time 3 day
[6] = 10 mg/kg, […], dose level Low, time 7 day
[7] = 10 mg/kg, […], dose level Low, time 14 day
[8] = 10 mg/kg, […], dose level Low, time 28 day

## Cn1cc[nH]c1=S [METHIMAZOLE]
[1]
  TERMINAL_BW: 217.3 g
  APTT: 21.2 s
  Bas: 0%
  Eos: 1%
  Fbg: 310.8 mg/dL
  Hb: 13.8 g/dL
  Ht: 38.2%
  Lym: 84.8%
  MCH: 22.7 pg
  MCHC: 36.1%
  MCV: 62.8 fL
  Mono: 1.6%
  Neu: 11.8%
  PT: 16.2 s
  Plat: 126.3 x10_4/uL
  RBC: 609 x10_4/ul
  Ret: 6.7%
  WBC: 107.5 x10_2/uL
  A/G: 1.3
  ALP: 1736 IU/L
  ALT: 41.4 IU/L
  AST: 68 IU/L
  BUN: 17 mg/dL
  CRE: 0.1 mg/dL
  Ca: 10.8 mg/dL
  Cl: 105.8 meq/L
  DBIL: 0.002 mg/dL
  GLC: 190.8 mg/dL
  IP: 6.8 mg/dL
  K: 4.1 meq/L
  LDH: 187.8 IU/L
  Na: 141.8 meq/L
  PL: 161 mg/dL
  RALB: 3.2 g/dL
  TBIL: 0.014 mg/dL
  TC: 89.4 mg/dL
  TG: 93.8 mg/dL
  TP: 5.7 g/dL
  gamma-GTP: 1.2 IU/L
[2]
  TERMINAL_BW: 252.2 g
  APTT: 20.9 s
  Bas: 0%
  Eos: 0.8%
  Fbg: 321.4 mg/dL
  Hb: 14.2 g/dL
  Ht: 38.9%
  Lym: 80.2%
  MCH: 22.3 pg
  MCHC: 36.5%
  MCV: 60.9 fL
  Mono: 2.6%
  Neu: 15.6%
  PT: 15.9 s
  Plat: 115.9 x10_4/uL
  RBC: 638 x10_4/ul
  Ret: 5.8%
  WBC: 112.3 x10_2/uL
  A/G: 1.2
  ALP: 1790.2 IU/L
  ALT: 39 IU/L
  AST: 75.8 IU/L
  BUN: 17.2 mg/dL
  CRE: 0.2 mg/dL
  Ca: 10.6 mg/dL
  Cl: 107 meq/L
  DBIL: 0 mg/dL
  GLC: 195.4 mg/dL
  IP: 7.5 mg/dL
  K: 4.1 meq/L
  LDH: 290.8 IU/L
  Na: 142.2 meq/L
  PL: 163.4 mg/dL
  RALB: 3 g/dL
  TBIL: 0.002 mg/dL
  TC: 84.8 mg/dL
  TG: 126 mg/dL
  TP: 5.5 g/dL
  gamma-GTP: 1 IU/L
[3]
  TERMINAL_BW: 307.5 g
  APTT: 22.2 s
  Bas: 0%
  Eos: 0.6%
  Fbg: 331.8 mg/dL
  Hb: 13.7 g/dL
  Ht: 39.4%
  Lym: 80.6%
  MCH: 20.5 pg
  MCHC: 34.9%
  MCV: 58.7 fL
  Mono: 1.8%
  Neu: 15.8%
  PT: 16.3 s
  Plat: 117.4 x10_4/uL
  RBC: 672.6 x10_4/ul
  Ret: 4.9%
  WBC: 112.2 x10_2/uL
  A/G: 1.1
  ALP: 1783.8 IU/L
  ALT: 42.8 IU/L
  AST: 71 IU/L
  BUN: 18.2 mg/dL
  CRE: 0.2 mg/dL
  Ca: 10.6 mg/dL
  Cl: 106 meq/L
  DBIL: 0 mg/dL
  GLC: 182 mg/dL
  IP: 7 mg/dL
  K: 4.3 meq/L
  LDH: 198.6 IU/L
  Na: 142.2 meq/L
  PL: 158.6 mg/dL
  RALB: 3 g/dL
  TBIL: 0.014 mg/dL
  TC: 75.4 mg/dL
  TG: 150.2 mg/dL
  TP: 5.8 g/dL
  gamma-GTP: 1.6 IU/L
[4]
  TERMINAL_BW: 373.3 g
  APTT: 22.6 s
  Bas: 0%
  Eos: 1%
  Fbg: 316.6 mg/dL
  Hb: 15.2 g/dL
  Ht: 42.9%
  Lym: 82.4%
  MCH: 19.3 pg
  MCHC: 35.3%
  MCV: 54.7 fL
  Mono: 2.2%
  Neu: 13.2%
  PT: 16.4 s
  Plat: 97.4 x10_4/uL
  RBC: 785.4 x10_4/ul
  Ret: 2.6%
  WBC: 113.4 x10_2/uL
  A/G: 1.1
  ALP: 1110.8 IU/L
  ALT: 40.4 IU/L
  AST: 65.8 IU/L
  BUN: 18.4 mg/dL
  CRE: 0.2 mg/dL
  Ca: 10.5 mg/dL
  Cl: 105.4 meq/L
  DBIL: 0.002 mg/dL
  GLC: 198.8 mg/dL
  IP: 6.3 mg/dL
  K: 4.4 meq/L
  LDH: 191.8 IU/L
  Na: 142.4 meq/L
  PL: 149.2 mg/dL
  RALB: 3.2 g/dL
  TBIL: 0.002 mg/dL
  TC: 65.8 mg/dL
  TG: 168 mg/dL
  TP: 6 g/dL
  gamma-GTP: 1 IU/L
[5]
  TERMINAL_BW: 223.1 g
  APTT: 19.4 s
  Bas: 0%
  Eos: 1.2%
  Fbg: 325.2 mg/dL
  Hb: 13.7 g/dL
  Ht: 38.6%
  Lym: 81.8%
  MCH: 21.9 pg
  MCHC: 35.6%
  MCV: 61.5 fL
  Mono: 2.6%
  Neu: 13.6%
  PT: 16.4 s
  Plat: 128.5 x10_4/uL
  RBC: 628.2 x10_4/ul
  Ret: 6.5%
  WBC: 95 x10_2/uL
  A/G: 1.1
  ALP: 1789.2 IU/L
  ALT: 40.8 IU/L
  AST: 65.6 IU/L
  BUN: 16.8 mg/dL
  CRE: 0.1 mg/dL
  Ca: 11.1 mg/dL
  Cl: 106.8 meq/L
  DBIL: 0 mg/dL
  GLC: 184 mg/dL
  IP: 6.3 mg/dL
  K: 4.2 meq/L
  LDH: 170 IU/L
  Na: 141.8 meq/L
  PL: 183 mg/dL
  RALB: 3.1 g/dL
  TBIL: 0.004 mg/dL
  TC: 101.6 mg/dL
  TG: 128.6 mg/dL
  TP: 5.8 g/dL
  gamma-GTP: 1.2 IU/L
[6]
  TERMINAL_BW: 253.1 g
  APTT: 20.3 s
  Bas: 0%
  Eos: 1%
  Fbg: 333 mg/dL
  Hb: 13.9 g/dL
  Ht: 38.1%
  Lym: 80%
  MCH: 22.3 pg
  MCHC: 36.4%
  MCV: 61.3 fL
  Mono: 2.6%
  Neu: 15.6%
  PT: 16.4 s
  Plat: 121.5 x10_4/uL
  RBC: 622.8 x10_4/ul
  Ret: 5.6%
  WBC: 102.3 x10_2/uL
  A/G: 1.1
  ALP: 1430.4 IU/L
  ALT: 38 IU/L
  AST: 65.8 IU/L
  BUN: 17.4 mg/dL
  CRE: 0.2 mg/dL
  Ca: 10.8 mg/dL
  Cl: 107.4 meq/L
  DBIL: 0 mg/dL
  GLC: 177.8 mg/dL
  IP: 7.1 mg/dL
  K: 4.1 meq/L
  LDH: 232.4 IU/L
  Na: 142 meq/L
  PL: 171.8 mg/dL
  RALB: 3 g/dL
  TBIL: 0 mg/dL
  TC: 90.8 mg/dL
  TG: 149 mg/dL
  TP: 5.9 g/dL
  gamma-GTP: 1 IU/L
[7]
  TERMINAL_BW: 300.3 g
  APTT: 22.1 s
  Bas: 0%
  Eos: 0.8%
  Fbg: 318.8 mg/dL
  Hb: 14 g/dL
  Ht: 40.7%
  Lym: 85.2%
  MCH: 20.1 pg
  MCHC: 34.5%
  MCV: 58.4 fL
  Mono: 2%
  Neu: 11.6%
  PT: 16.5 s
  Plat: 110.2 x10_4/uL
  RBC: 697 x10_4/ul
  Ret: 4.3%
  WBC: 101.8 x10_2/uL
  A/G: 1.1
  ALP: 1277.4 IU/L
  ALT: 40.6 IU/L
  AST: 62.6 IU/L
  BUN: 17.6 mg/dL
  CRE: 0.2 mg/dL
  Ca: 10.6 mg/dL
  Cl: 106.6 meq/L
  DBIL: 0 mg/dL
  GLC: 176.8 mg/dL
  IP: 6.1 mg/dL
  K: 4.1 meq/L
  LDH: 197.6 IU/L
  Na: 142.2 meq/L
  PL: 170.2 mg/dL
  RALB: 3.2 g/dL
  TBIL: 0.01 mg/dL
  TC: 96 mg/dL
  TG: 134 mg/dL
  TP: 6.1 g/dL
  gamma-GTP: 2 IU/L
[8]
  TERMINAL_BW: 356.4 g
  APTT: 23.7 s
  Bas: 0%
  Eos: 1%
  Fbg: 306 mg/dL
  Hb: 15 g/dL
  Ht: 42.4%
  Lym: 84.4%
  MCH: 19.4 pg
  MCHC: 35.4%
  MCV: 54.8 fL
  Mono: 2.4%
  Neu: 11%
  PT: 16.7 s
  Plat: 87.5 x10_4/uL
  RBC: 773 x10_4/ul
  Ret: 2%
  WBC: 108.5 x10_2/uL
  A/G: 1.1
  ALP: 1026.6 IU/L
  ALT: 29.8 IU/L
  AST: 51 IU/L
  BUN: 19.2 mg/dL
  CRE: 0.2 mg/dL
  Ca: 10.7 mg/dL
  Cl: 106.4 meq/L
  DBIL: 0.002 mg/dL
  GLC: 184.8 mg/dL
  IP: 5.9 mg/dL
  K: 4.1 meq/L
  LDH: 143.8 IU/L
  Na: 142.6 meq/L
  PL: 160 mg/dL
  RALB: 3.5 g/dL
  TBIL: 0.004 mg/dL
  TC: 81.2 mg/dL
  TG: 165.4 mg/dL
  TP: 6.6 g/dL
  gamma-GTP: 1.8 IU/L
